“And” between values parts separate entries of the source, which are not always exact repeats. Identical values can stand only once.
Experiments:
[1] = target: T1, Recombinant human PSMA (rhPSMA) (Homo sapiens, UniProt Q04609); experiment: NAALADase assay (competitive inhibition, Amplex Red glutamate readout); format: biochemical; settings: for IC50: rhPSMA, substrate Ac-Asp-Glu, 1 h 37 °C
T1 construct: purchased R&D systems, Abingdon, UK
Protocol: Recombinant human PSMA (rhPSMA; R&D systems, Abingdon, UK) was diluted in assay buffer (50 mM HEPES, 0.1 M NaCl, pH 7.5) to 0.4 μg/mL. The substrate Ac–Asp–Glu (40 μM) was mixed with the synthesized derivatives and with a reference (PSMA-617) at concentrations ranging from 10^−6 to 10^−13 M in a final volume of 12.5 μL assay buffer. The mixtures were combined with 12.5 μL of the rhPSMA solution and incubated for 1 h at 37 °C in 384-well black polystyrene microplates (ThermoFisher, Bleiswijk, The Netherlands). The amount of glutamate released was measured by incubating with 25 μL of a working solution of the Amplex Red glutamic acid kit (ThermoFisher, Bleiswijk, The Netherlands) at 37 °C for 30 min. Fluorescence was measured with a HIDEX Sense Optical System (Goedereede, The Netherlands) with excitation at 535 nm and emission at 590 nm. Data were normalized and analyzed using a one-site total binding regression with GraphPad Prism v9.0 (GraphPad Software, San Diego, CA, USA).

[2] = Stability in phosphate-buffered saline (PBS), radio-HPLC; format: physicochemical; settings: 24 h post-incubation, 37 °C, indium-111 labeled, intact fraction
Protocol: [^111In]In-22 or [^111In]In-30 (~10 MBq, 20 µL) was mixed with 80 μL of PBS (0.01 M, pH 7.4) and incubated at 37 °C for up to 24 h. A sample of the PBS solution was loaded directly onto the radio-HPLC at 1, 4, and 24 h post-incubation.

[3] = Stability in mouse serum, radio-HPLC; format: in vitro ADME; settings: 24 h post-incubation, 37 °C, indium-111 labeled, intact fraction
Protocol: [^111In]In-22 or [^111In]In-30 (~35 MBq, 70 µL) was mixed with 330 μL of mouse serum and incubated at 37 °C for up to 24 h. After 1, 4, and 24 h incubation, 50 μL of the mouse serum solution was added to a separate vial containing 50 µL of acetonitrile. The sample was centrifuged at 5000× g for 20 min. The supernatant was analyzed by radio-HPLC.

[4] = LogD7.4 by shake-flask method (PBS/n-octanol); format: physicochemical; settings: PBS/n-octanol (1:1 v/v); LogD7.4, PBS pH 7.4/n-octanol, indium-111 labeled compound; read-out: LogD
Protocol: The distribution coefficients (LogD7.4 values) were determined by a shake-flask method, in which 2 μL (~0.5 MBq) of the labeling solution ([^111In]In-22 or [^111In]In-30) were added to an Eppendorf tube containing 1 mL of PBS (0.01 M, pH 7.4)/n-octanol (v/v, 1:1). After vigorous vortexing, the solution was centrifuged at 2500× g for 15 min for phase separation. Samples (3 × 10 μL) of the two phases were taken out and measured in a gamma counter. LogD7.4 values were calculated by using the following equation: LogD7.4 = log [(counts in octanol phase)/(counts in aqueous phase)] and the experiment was performed in triplicate.

[5] = system: PSMA expressing LS174T cells; experiment: Internalization and cell uptake assay; format: cell-based, human; settings: 2 h 37 °C
Protocol: LS174T human colon carcinoma cells transfected with human PSMA were obtained from Dr. Sandra Heskamp (Radboud UMC, Nijmegen). Cells were cultured in RPMI-1640 media supplemented with 2 mM glutamine, 10% fetal bovine serum (FBS) and 0.3 mg/mL G418 (Geneticin, Sigma Aldrich, St. Louis, MO, USA).
Cells were seeded (1.2 × 10^6 cells/well) and cultured to confluency for 24 h prior to experiments. We prepared 10^−9 M solutions of [^111In]In-PSMA-617, [^111In]In-22, and [^111In]In-30 in internalization media (RPMI, 20 mM HEPES, 1% BSA, pH 7.4). The media were removed from each well, and they were rinsed twice with PBS at rt. 2 mL of the radioactive compound was then added to each well and incubated at 37 °C for 2 h. For the internalization assay, the media containing radioactive compound were removed, and each well was washed twice with cold PBS. A total of 1 mL of Glycine buffer (50 mM glycine, 100 mM NaCl, pH 2.8) was added immediately and incubated for 10 min at rt. The glycine wash was then collected into counting tubes (membrane-bound fraction). An extra wash was performed and collected in the same tubes. A total of 1 mL of NaOH (1 M) was then added to each tube and left for 15 min at rt. The lysate (internalized fraction) was then collected in separate counting tubes, together with one extra NaOH wash. Data were normalized to 1,000,000 cells and percentage added dose.

[6] = system: BALB/c nude mice bearing LS174T PSMA-positive tumor xenografts; experiment: Ex vivo biodistribution studies; format: in vivo; settings: 24 h p.i.
Protocol: Animal experiments were performed in 8–10 weeks old male BALB/c nude mice (Janvier Labs, Le Genest-Saint-Isle, France). Animals were housed in individually ventilated cages (Blue line IVC, 4 mice per cage) under nonsterile standard conditions with cage enrichment present and free access to chlorophyll-free animal chow (Sniff GmbH, Soest, Germany) and water and acclimated for 1 week before experiments. Mice were subcutaneously inoculated with 4.0 × 10^6 LS174T cells in the right flank, diluted in 100 μL of cell suspension. Seven days after tumor cell inoculation, when xenografts were approximately 0.2–0.3 cm^3, the tracers were injected intravenously via the tail vein. All experiments were approved by the institutional Animal Welfare Committee and were conducted in accordance with the guidelines of the Revised Dutch Act on Animal Experimentation (WOD).
Mice were intravenously injected with ~1 nmol of either [^111In]In-PSMA-617, [^111In]In-22 or [^111In]In-30 with molar activity of 5 MBq/nmol for ex vivo biodistribution studies. Mice (n = 4/timepoint) were euthanized by cervical dislocation at 1, 4, and 24 h p.i. A block group was included, and mice were euthanized at 4 h p.i. Organs were collected in tubes and counted in the gamma counter, where the calibration factor was determined by measuring different known activities of indium-111.

T1 sequence (Q04609 whole entry): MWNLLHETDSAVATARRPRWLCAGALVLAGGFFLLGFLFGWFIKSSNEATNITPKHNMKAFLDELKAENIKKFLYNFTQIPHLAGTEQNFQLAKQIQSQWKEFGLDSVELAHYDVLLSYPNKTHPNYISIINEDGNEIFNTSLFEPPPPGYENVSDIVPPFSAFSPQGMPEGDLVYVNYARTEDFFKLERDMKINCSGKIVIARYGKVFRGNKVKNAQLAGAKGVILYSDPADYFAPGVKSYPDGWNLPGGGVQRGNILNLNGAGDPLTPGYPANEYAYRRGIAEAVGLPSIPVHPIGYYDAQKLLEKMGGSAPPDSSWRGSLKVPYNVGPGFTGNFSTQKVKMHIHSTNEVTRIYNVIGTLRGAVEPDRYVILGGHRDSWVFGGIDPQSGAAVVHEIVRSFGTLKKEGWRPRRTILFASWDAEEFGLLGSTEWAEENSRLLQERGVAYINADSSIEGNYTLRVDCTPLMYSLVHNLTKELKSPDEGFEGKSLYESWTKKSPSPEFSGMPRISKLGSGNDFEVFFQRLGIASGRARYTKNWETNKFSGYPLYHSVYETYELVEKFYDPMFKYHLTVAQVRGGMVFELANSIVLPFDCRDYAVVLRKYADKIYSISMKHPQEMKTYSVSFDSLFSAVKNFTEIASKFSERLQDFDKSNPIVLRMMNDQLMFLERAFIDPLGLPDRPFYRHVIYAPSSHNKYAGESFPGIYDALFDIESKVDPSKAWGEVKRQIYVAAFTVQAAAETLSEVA

SMILES | IC50 [1] | other results
NCCCCCC(=O)NCCCCC(NC(=O)NC(CCC(=O)O)C(=O)O)C(=O)O (centres unmarked) [Compound 1] | 9.86 ± 1.7 nM | 
NCCC(=O)NCCCCCC(=O)NCCCC[C@H](NC(=O)N[C@@H](CCC(=O)O)C(=O)O)C(=O)O [Compound 2, EuK(Ahx-Ala)] | 23.1 ± 3.1 nM | 
NCCC(=O)NCCC(=O)NCCCCCC(=O)NCCCC[C@H](NC(=O)N[C@@H](CCC(=O)O)C(=O)O)C(=O)O [Compound 3] | 20.1 ± 2.7 nM | 
N[C@@H](Cc1ccccc1)C(=O)NCCC(=O)NCCCCCC(=O)NCCCC[C@H](NC(=O)N[C@@H](CCC(=O)O)C(=O)O)C(=O)O [Compound 4] | 2.86 ± 0.3 nM | 
CC(C)C[C@H](N)[C@@H](O)CC(=O)NCCC(=O)NCCCCCC(=O)NCCCC[C@H](NC(=O)N[C@@H](CCC(=O)O)C(=O)O)C(=O)O [Compound 5] | 10.1 ± 3.2 nM | 
N[C@@H](Cc1ccccc1)C(=O)NCCCCCC(=O)NCCCC[C@H](NC(=O)N[C@@H](CCC(=O)O)C(=O)O)C(=O)O [Compound 6] | 3.17 ± 0.5 nM | 
N[C@@H](Cc1ccccc1)C(=O)N[C@@H](Cc1ccccc1)C(=O)NCCCCCC(=O)NCCCC[C@H](NC(=O)N[C@@H](CCC(=O)O)C(=O)O)C(=O)O [Compound 7] | 1.72 ± 0.4 nM | 
NCCC(=O)N[C@@H](Cc1ccccc1)C(=O)NCCCCCC(=O)NCCCC[C@H](NC(=O)N[C@@H](CCC(=O)O)C(=O)O)C(=O)O [Compound 8] | 4.53 ± 0.4 nM | 
CC(C)C[C@H](N)[C@@H](O)CC(=O)N[C@@H](Cc1ccccc1)C(=O)NCCCCCC(=O)NCCCC[C@H](NC(=O)N[C@@H](CCC(=O)O)C(=O)O)C(=O)O [Compound 9] | 7 ± 0.3 nM | 
CC(C)C[C@H](N)[C@@H](O)CC(=O)NCCCCCC(=O)NCCCC[C@H](NC(=O)N[C@@H](CCC(=O)O)C(=O)O)C(=O)O [Compound 10] | 6.83 ± 0.5 nM | 
CC(C)C[C@H](NC(=O)C[C@H](O)[C@@H](N)CC(C)C)[C@@H](O)CC(=O)NCCCCCC(=O)NCCCC[C@H](NC(=O)N[C@@H](CCC(=O)O)C(=O)O)C(=O)O [Compound 11] | 6.5 ± 0.4 nM | 
CC(C)C[C@H](NC(=O)CCN)[C@@H](O)CC(=O)NCCCCCC(=O)NCCCC[C@H](NC(=O)N[C@@H](CCC(=O)O)C(=O)O)C(=O)O [Compound 13] | 6.15 ± 0.6 nM | 
CC(C)C[C@H](NC(=O)[C@H](Cc1ccccc1)NC(=O)CN1CCN(CC(=O)O)CCN(CC(=O)O)CCN(CC(=O)O)CC1)[C@@H](O)CC(=O)NCCCCCC(=O)NCCCC[C@H](NC(=O)N[C@@H](CCC(=O)O)C(=O)O)C(=O)O [Compound 14] | 1.73 ± 0.7 nM | 
CC(C)C[C@H](NC(=O)[C@H](Cc1ccccc1)NC(=O)[C@@H](N)CN)[C@@H](O)CC(=O)NCCCCCC(=O)NCCCC[C@H](NC(=O)N[C@@H](CCC(=O)O)C(=O)O)C(=O)O [Compound 15] | 2.1 ± 0.4 nM | 
CC(C)C[C@H](NC(=O)[C@H](Cc1ccccc1)NC(=O)[C@@H](N)CC(=O)O)[C@@H](O)CC(=O)NCCCCCC(=O)NCCCC[C@H](NC(=O)N[C@@H](CCC(=O)O)C(=O)O)C(=O)O [Compound 16, EuK(Ahx-Sta-Phe-Asp)] | 1.03 ± 0.5 nM | 
CC(C)C[C@H](NC(=O)[C@H](Cc1ccccc1)NC(=O)[C@@H](N)Cc1ccc(O)cc1)[C@@H](O)CC(=O)NCCCCCC(=O)NCCCC[C@H](NC(=O)N[C@@H](CCC(=O)O)C(=O)O)C(=O)O [Compound 17] | 2.62 ± 0.4 nM | 
CC(C)C[C@H](NC(=O)[C@H](Cc1ccccc1)NC(=O)[C@@H](N)Cc1ccccc1)[C@@H](O)CC(=O)NCCCCCC(=O)NCCCC[C@H](NC(=O)N[C@@H](CCC(=O)O)C(=O)O)C(=O)O [Compound 18] | 3.33 ± 0.4 nM | 
CC(C)C[C@H](NC(=O)[C@H](Cc1ccccc1)NC(=O)C[C@H](O)[C@@H](N)CC(C)C)[C@@H](O)CC(=O)NCCCCCC(=O)NCCCC[C@H](NC(=O)N[C@@H](CCC(=O)O)C(=O)O)C(=O)O [Compound 19] | 1.22 ± 0.3 nM | 
CC(C)C[C@H](NC(=O)[C@H](Cc1ccccc1)NC(=O)[C@H](CC(=O)O)NC(=O)CCC(C(=O)O)N1CCN(CC(=O)O)CCN(CC(=O)O)CCN(CC(=O)O)CC1)[C@@H](O)CC(=O)NCCCCCC(=O)NCCCC[C@H](NC(=O)N[C@@H](CCC(=O)O)C(=O)O)C(=O)O (stereo partly drawn) [Compound 22, EuK(Ahx-Sta-L-Phe-Asp-DOTA-GA)] | 1.66 nM and 1 to 1.6 nM | Stability in PBS (%) [2]: > 90%; Stability in Mouse Serum (%) [3]: > 90%; IC50 of 22 (L-Phe) relative to 23 (D-Phe) ([1]; comparison in words): two-fold better; logD [4]: -3.26 ± 0.05
CC(C)C[C@H](NC(=O)[C@@H](Cc1ccccc1)NC(=O)[C@H](CC(=O)O)NC(=O)CCC(C(=O)O)N1CCN(CC(=O)O)CCN(CC(=O)O)CCN(CC(=O)O)CC1)[C@@H](O)CC(=O)NCCCCCC(=O)NCCCC[C@H](NC(=O)N[C@@H](CCC(=O)O)C(=O)O)C(=O)O (stereo partly drawn) [Compound 23, EuK(Ahx-Sta-D-Phe-Asp-DOTA-GA)] |  | logD [4]: -3.21 ± 0.07
O=C(O)CC[C@H](NC(=O)N[C@@H](CCCCNC(=O)[C@H](Cc1ccc2ccccc2c1)NC(=O)[C@H]1CC[C@H](CNC(=O)CN2CCN(CC(=O)O)CCN(CC(=O)O)CCN(CC(=O)O)CC2)CC1)C(=O)O)C(=O)O [PSMA-617, reference compound] | 0.9 ± 0.3 nM | Internalized fraction as share of total uptake (internalization) [5]: 34.1%; Tumor-to-muscle (T/M) ratio [6]: 26
CC(C)C[C@H](NC(=O)[C@@H](Cc1ccccc1)NC(=O)[C@H](CC(=O)O)NC(=O)CCC(C(=O)O)N1CCN(CC(=O)[O-])CCN(CC(=O)[O-])CCN(CC(=O)[O-])CC1)[C@@H](O)CC(=O)NCCCCCC(=O)NCCCC[C@H](NC(=O)N[C@@H](CCC(=O)O)C(=O)O)C(=O)O.[111In+3] (some centres unmarked) [[^111In]In-23] |  | Stability in PBS (%) [2]: > 90%; Stability in Mouse Serum (%) [3]: > 90%
